The source of these data is patent US20100261753A1, “METHODS FOR PREVENTING AND/OR TREATING DEGENERATIVE DISORDERS OF THE CENTRAL NERVOUS SYSTEM” (AMICUS THERAPEUTICS, INC., priority 2009, published 2010).

The nature of one data set: Rat pharmacokinetics. Type of data set: in vivo, Sprague-Dawley rats. How it is done:
Pharmacokinetic (PK) data was obtained in rats to assess the bioavailability of test compound. In particular, the following PK parameters were calculated: bioavailability as measured by area under the Concentration/Time curve (AUC), fraction of dose available (% F; further defined below), clearance (CL), volume of distribution (Vd), and half-life (t½). For this purpose, 8-week old Sprague-Dawley male rats were given either a single intravenous (IV) dose equivalent to 3 mg/kg of free base or single escalating p.o. (gavage) doses of test compound equivalent to 10, 30, and 100 mg/kg of free base. Three rats were used per dosing group. Blood was collected over a 24-hr period. The time points for blood collection after intravenous administration were: 0, 2.5, 5, 10, 15, 30, 45 min, 1, 2, 4, 8, 12, and 24 hrs; time points for blood collection after p.o. administrations were: 0, 5, 15, 30, 45 min, 1, 2, 3, 4, 8, 12, and 24 hrs. Plasma samples were analyzed for compound levels by LC-MS/MS at PPD. Raw data was analyzed by non-compartmental analysis in Win-nonLin to calculate Vd, % F, CL, and […].

Data set [1] has as its target T1, recombinant human GCase (rhGCase; Cerezyme) (Homo sapiens, UniProt P04062, R534H).
T1 construct: purchased Genzyme Corp
T1 sequence (P04062 40-536 R534H): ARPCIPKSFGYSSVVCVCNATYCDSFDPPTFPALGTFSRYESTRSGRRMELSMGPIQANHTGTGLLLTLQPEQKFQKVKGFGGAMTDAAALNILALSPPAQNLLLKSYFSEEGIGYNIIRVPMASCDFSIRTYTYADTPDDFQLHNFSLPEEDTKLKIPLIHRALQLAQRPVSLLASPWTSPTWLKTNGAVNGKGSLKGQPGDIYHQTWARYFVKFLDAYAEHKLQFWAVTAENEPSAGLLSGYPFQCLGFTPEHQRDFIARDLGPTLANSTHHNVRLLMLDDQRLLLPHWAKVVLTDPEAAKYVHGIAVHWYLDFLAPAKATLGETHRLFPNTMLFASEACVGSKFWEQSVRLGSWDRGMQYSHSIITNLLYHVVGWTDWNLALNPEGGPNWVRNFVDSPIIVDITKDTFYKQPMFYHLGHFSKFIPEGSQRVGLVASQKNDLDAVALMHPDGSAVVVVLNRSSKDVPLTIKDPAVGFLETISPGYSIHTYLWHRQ
The data set can be described thus: In vitro enzyme inhibition assay of rhGCase with 4-MU-β-D-Glc substrate. The data set is classed as biochemical. The conditions noted are these: for Ki: from IC50 by Cheng-Prusoff equation. As for the experimental part: The binding affinity (defined here by Ki binding constant) of GCase for small molecule pharmacological chaperones described in this document were empirically determined using enzyme inhibition assays. In brief, the enzyme inhibition assays used monitored the ability of test compound to bind and prevent the hydrolysis of a fluorogenic substrate in a concentration-dependent manner. Specifically, the enzyme activity of recombinant human GCase (rhGCase; Cerezyme®, Genzyme Corp.) was measured using the 4-methylumbelliferyl-β-D-glucopyranoside (4-MU-β-D-Glc) fluorogenic substrate in the absence or in the presence of varying amounts of each test compound. […] The enzyme inhibition assays were performed at both pH 7.0 (endoplasmic reticulum pH) and at pH 5.2 (lysosomal pH) to gain insight into the binding affinity (i.e., potency) of compounds for GCase in the endoplasmic reticulum and lysososome.
Enzyme (Cerezyme®, a recombinant form of the human enzyme β-glucocerebrosidase) was also diluted in the same buffer “M” at pH 7.0 and pH 5.2. […] Five μl of diluted enzyme was added to 15 μl of the various inhibitor concentrations or buffer “M” alone and incubated at 37° C. for 1 hour with 50 μl of the substrate preparation to assess β-glucosidase activity at pH 7.0 and pH 5.2.

Data set [2] can be described thus: Blood brain barrier penetration after a single p.o. dose in mice. The conditions noted are these: single 30 mg/kg (free base equivalent) p.o. Type of data set: in vivo, mice (C57BL/6). How it is done: For this purpose, 8-week old wild-type male mice (C57BL/6) were administered a single 30 mg/kg (free base equivalent) p.o. dose of reference or test compound by gavage (n=3 mice per time point). Dosing solutions were prepared in water. After dosing, mice were euthanized with CO2 at the following time points: 0-, 0.5-, 1-, and 4-hour post-dose. […] Similarly, brains were collected from each mouse. Plasma was derived by spinning whole blood at 2700 g for 10 minutes at 4° C. followed by storage on dry ice. Whole brains were washed in cold PBS to remove contaminating blood, blotted dry, flash frozen on dry ice, and ultimately stored at −80° C. until analysis. To prepare brain samples for analysis, 50-100 mg of tissue was homogenized in […]. Samples were then clarified by centrifugation. Next, 25 μl of the brain homogenate supernatant or 25 μl of plasma were combined with 25 μl of acetonitrile:water (95/5). […] Between 20 and 30 μl sample was injected for analysis. […] When Compound B was analyzed, Compound A was used as internal standard (150.1/130.1). For calculating drug concentrations, raw data for plasma (ng/mL) and brain (ng/g) was converted to nM using the molecular weight of respective compounds and assuming 1 g of tissue is equivalent to 1 mL volume. Concentration as a function of time was plotted in GraphPad Prism version 4.02.

The target in another data set is T2, GCase (Homo sapiens, UniProt P04062).
T2 sequence (P04062 40-536): T1 sequence (P04062 40-536 R534H) with H495R
The data set can be described thus: GCase activity enhancement (EC50, Emax; Table 2B). The data set is classed as cell-based.

[3] abbreviates: male, Sprague-Dawley, plasma, IV, 3 mg/kg free base.
[4] abbreviates: pH 7 (endoplasmic reticulum pH), read-out: IC50 pH 7.

Substitutions are numbered along the chain they refer to. Values joined by “and” are separate entries in the source; they are usually repeats but may differ in a detail not shown here. Identical values can stand only once. Counter-ions that a name gives are not always drawn. Like-named read-outs stand apart in the source and are kept apart here.

For the compound `O[C@@H]1CNCC(CF)[C@H]1O` (stereo in doubt) [Compound A, (3R,4R,5R)-5-(fluoromethyl)piperidine-3,4-diol], the CL in the data set “Rat pharmacokinetics” (PO, 30 mg/kg free base) turned out to be 66.82 ± 8.48 mL/min/kg; in “Rat pharmacokinetics” (PO, 100 mg/kg free base), 56.55 ± 3.48 mL/min/kg. The VD is 13.532 ± 3.291 L/kg in the data set “Rat pharmacokinetics” (PO, 30 mg/kg free base) and 13.101 ± 1.518 L/kg in the data set “Rat pharmacokinetics” (PO, 100 mg/kg free base). Also, the Cmax worked out at 7270 ± 139 ng/mL in “Rat pharmacokinetics” (setting [3]); 1290 ± 271 ng/mL in “Rat pharmacokinetics” (male, Sprague-Dawley, plasma, PO, 10 mg/kg free base); 2870 ± 355 ng/mL in the data set “Rat pharmacokinetics” (male, Sprague-Dawley, plasma, PO, 30 mg/kg free base); 9390 ± 742 ng/mL in the data set “Rat pharmacokinetics” (male, Sprague-Dawley, plasma, PO, 100 mg/kg free base). The same compound yielded a distribution volume (Vd) in the data set “Rat pharmacokinetics” (setting [3]) of 3.48 ± 0.232 L/kg. Besides, the clearance in the data set “Rat pharmacokinetics” (setting [3]) is 27.8 mL/min/kg. Also, the exposure AUC(0-t) amounted to 1800 ± 42.7 ng·h/mL in “Rat pharmacokinetics” (male, Sprague-Dawley, plasma, IV, 3 mg/kg free base (3.72 mg/kg salt)); 2980 ± 228 ng·h/mL in the data set “Rat pharmacokinetics” (male, Sprague-Dawley, plasma, PO, 10 mg/kg free base (12.4 mg/kg salt)); 8250 ± 388 ng·h/mL in “Rat pharmacokinetics” (male, Sprague-Dawley, plasma, PO, 30 mg/kg free base (37.2 mg/kg salt)); 29600 ± 1750 ng·h/mL in “Rat pharmacokinetics” (male, Sprague-Dawley, plasma, PO, 100 mg/kg free base (124 mg/kg salt)). Also, the half-life was 1.4 ± 0.1 h in the data set “Rat pharmacokinetics” (male, Sprague-Dawley, plasma, IV, 3 mg/kg free base, read-out: t1/2 (converted)); 1.2 ± 0.4 h in “Rat pharmacokinetics” (male, Sprague-Dawley, plasma, PO, 10 mg/kg free base, read-out: t1/2 (converted)); 2.3 ± 0.3 h in “Rat pharmacokinetics” (male, Sprague-Dawley, plasma, PO, 30 mg/kg free base, read-out: t1/2 (converted)); 2.6 ± 0.1 h in the data set “Rat pharmacokinetics” (male, Sprague-Dawley, plasma, PO, 100 mg/kg free base, read-out: t1/2 (converted)). For the same compound, the bioavailability in the data set “Rat pharmacokinetics” (male, Sprague-Dawley, plasma, PO, 10 mg/kg free base, read-out: % F) is 50 ± 3.8%; in “Rat pharmacokinetics” (male, Sprague-Dawley, plasma, PO, 30 mg/kg free base, read-out: % F), 46 ± 2.5%; in the data set “Rat pharmacokinetics” (male, Sprague-Dawley, plasma, PO, 100 mg/kg free base, read-out: % F), 49 ± 2.7%. The 50% inhibitory concentration (IC50) stood at 10 ± 1 nM in data set [1] (pH 5.2, average of three independent experiments, Table 3A, read-out: IC50 pH 5.2) and 10 ± 1 nM in data set [1] (pH 5.2, average of three independent experiments, Table 3B, read-out: IC50 pH 5.2). Also, the “blood brain barrier crossing” value in data set [2] (compared to IFG) was “crossed the blood brain barrier more readily as compared to IFG”.
Regarding `O[C@@H]1CNCC(CF)[C@H]1O` (stereo in doubt) [Compound A-HCl, (3R,4R,5R)-5-(fluoromethyl)piperidine-3,4-diol hydrochloride], the bioavailability in the data set “Rat pharmacokinetics” (male, Sprague-Dawley, plasma, po, read-out: oral bioavailability) was about 50%. Besides, the half-life in the data set “Rat pharmacokinetics” (male, Sprague-Dawley, plasma, read-out: half-life) is 1 to 2.5 h. Further, the inhibitory constant (Ki) in data set [1] (pH 5.2, read-out: Ki pH 5.2) was found to be 6 nM. The half-maximal inhibitory concentration (IC50) in data set [1] (setting [4]) is 6 nM and 7 nM. Moreover, the Ki in data set [1] (pH 7, read-out: Ki pH 7) is 3 nM and 4 nM. On GCase, the “effect on GCase activity” value is recorded as “concentration-dependent increase in GCase activity” and the “enhancement of enzyme activity compared to IFG-tartrate” value was “enhanced enzyme activity to the same maximum level at much lower concentration”.
On to `O[C@@H]1[C@@H](CCl)CNC[C@H]1O` [Compound B, (3R,4R,5S)-5-(chloromethyl)piperidine-3,4-diol], for which the IC50 in data set [1] (pH 5.2, average of three independent experiments, Table 4A, read-out: IC50 pH 5.2) was 73 ± 9 nM; in data set [1] (pH 5.2, average of three independent experiments, Table 4B, read-out: IC50 pH 5.2) it was 73 ± 9 nM; in data set [1] (setting [4]), 9.8 ± 0.5 nM. In addition, the Ki amounted to 384 ± 2.1 nM in data set [1] (pH 5.2, read-out: Ki pH 5.2) and 5.1 ± 0.3 nM in data set [1] (pH 7, read-out: Ki pH 7). For the same compound, the EC50 on GCase is 9.6 ± 1 nM. Moreover, the Emax at GCase turned out to be 104 ± 3.4%. Besides, the “effect on GCase activity” value at GCase was “concentration-dependent increase in GCase activity”. For the same compound, the “enhancement of enzyme activity compared to IFG-tartrate” value on GCase is recorded as “enhanced enzyme activity to the same maximum level at much lower concentration”. Moreover, in data set [2] (compared to hydrochloride salt form of Compound A), the brain levels result was “even higher levels of Compound B were detected in brain”.

The Cmax is the maximum level reached in the sampled fluid or tissue. One may read the Vd as a proportionality between amount in the body and measured concentration, not a real space. High values mean wide distribution into tissue, low ones little distribution into tissue. What is called clearance is the rate of elimination divided by the concentration. Read a high clearance as a high capacity for elimination. By AUC(0-t) is commonly meant the area under the concentration-time curve up to a stated or last time point. As usually defined, the IC50 is the concentration at which inhibition is half-maximal. A word on the Ki: it is a dissociation constant, usually derived from enzyme kinetics or from competition with a known ligand. A word on the EC50: it is the concentration giving half of the maximal effect. For orientation: Emax means the size of the effect at its maximum, as opposed to the concentration needed.
